Reference: article PMC7450057, “Enhancing intracellular accumulation and target engagement of PROTACs with reversible covalent chemistry” (Nature Communications, 2020)
Values joined by “and” are separate entries in the source; they are usually repeats but may differ in a detail not shown here. Identical values can stand only once. “Also recorded” adds a separate entry of the source.

Experiments:
IKZF1 = test: Splenic IKZF1 level in mice after single RC-1 injection (western blot); format: in vivo, ICR mice; conditions: for IKZF1 level, mean: Figure 5d, DMSO = 100; for IKZF1 quantification: Supplementary Figure 8, individual animals
Description: (§1) To investigate the protein degradation effect of RC-1 in vivo, mice were subjected to single RC-1 administration at the dose of 50 or 100 mg kg^−1 (i.p.) or seven once-daily RC-1 administration at the dose of 20 mg kg^−1 (i.p.) (n = 2–3). Twenty-four hours after the one-time RC-1 injection or 24 h after the 7th injection, mice were anesthetized with isoflurane and the whole spleen was dissected and stored at −80 °C for western blot analysis of protein level.
(§2) Supplementary Figure 8. Protein degradation by BTK PROTAC RC-1 in mouse spleen. ICR mice were subjected to single IP injection of RC-1 at the dose of 50 mg/kg (n = 4) or 100 mg/kg (n = 3) and spleens were harvested 24 h after injection. (a) The splenic p-BTK(Y233), BTK, IKZF1 and IKZF3 levels were measured with Western blot. (b). Quantification of protein levels shown in (a). Data are presented as mean values ± SEM.
(§3) Asterisks indicate that the differences between samples are statistically significant, using two-tailed, unpaired t- […]
(§4) test (* p < 0.05; significant).
(§5) (1 picture or pasted object on this page, not shown here)

p-BTK(Y233) = molecular target: T1, p-BTK(Y233) (Mus musculus, UniProt P35991); test: Splenic p-BTK(Y233) level in mice after single RC-1 injection (western blot); format: in vivo, ICR mice; conditions: for p-BTK(Y223) level, mean: Figure 5d, DMSO = 100; for p-BTK(Y233) quantification: Supplementary Figure 8, individual animals
T1 construct: from tissue; host or cells: spleen of female ICR mice
Description: as §1, §2, §3, §4, §5

wild-type BTK = molecular target: T2, wild-type BTK (Homo sapiens, UniProt Q06187); test: BTK degradation in XLA cells overexpressing wild-type BTK (western blot); format: cell-based; conditions: 24 h
T2 construct: expressed in transfected cells; host or cells: XLA cells (gift from Dr. Woyach)
Description: XLA cells overexpressing wild-type BTK or mutant C481S BTK were plated at the same cell number and density as the above experiments and were treated with RC-1, IRC-1, or RNC-1 at the dose of 1.6, 8.0, 40, 200, and 1000 nM for 24 h. After completion of treatment, all the cells were collected and processed for western blot analysis.
(§6) The collected cells and spleen tissues were lysed in RIPA lysis buffer (50 mM Tris-HCl, pH 7.4, 150 mM NaCl, 1% NP-40, 0.5% sodium deoxycholate, 0.1% SDS) supplemented with Halt™ Protease and Phosphatase Inhibitor Cocktail (Thermo Fisher Scientific, Cat. No. PI78440) immediately before use. Lysates were centrifuged at 15,000 × g for 10 min at 4 °C and the supernatant was quantified for total protein concentration using the Pierce BCA Protein Assay (Thermo Fisher Scientific, Cat. No. 23225). Thirty micrograms of protein were loaded onto sodium dodecyl sulfate−polyacrylamide gel for electrophoresis (Bio-Rad) and transferred onto PVDF membranes (Millipore, Cat. No. IPVH00010). […] Imaging was performed using the ECL Prime chemiluminescent western blot detection reagents (GE Healthcare, Cat. No. RPN2232) by visualization of the blots to X-Ray film or with an Imager (Kindle Biosciences, Cat. No. D1001). All western blots were subsequently processed and quantified with Imager software. Protein level was normalized to β-actin or GAPDH loading controls.

BTK = BTK (Mus musculus, UniProt P35991); test: Pharmacodynamics: splenic BTK level in mice (western blot); format: in vivo, ICR mice; parameters: from tissue; host or cells: spleen of female ICR mice; conditions: for BTK level, mean: Figure 5d, DMSO = 100; for BTK quantification: Supplementary Figure 8, individual animals
Description: as §6, §1

BTK, sequence (P35991 whole entry): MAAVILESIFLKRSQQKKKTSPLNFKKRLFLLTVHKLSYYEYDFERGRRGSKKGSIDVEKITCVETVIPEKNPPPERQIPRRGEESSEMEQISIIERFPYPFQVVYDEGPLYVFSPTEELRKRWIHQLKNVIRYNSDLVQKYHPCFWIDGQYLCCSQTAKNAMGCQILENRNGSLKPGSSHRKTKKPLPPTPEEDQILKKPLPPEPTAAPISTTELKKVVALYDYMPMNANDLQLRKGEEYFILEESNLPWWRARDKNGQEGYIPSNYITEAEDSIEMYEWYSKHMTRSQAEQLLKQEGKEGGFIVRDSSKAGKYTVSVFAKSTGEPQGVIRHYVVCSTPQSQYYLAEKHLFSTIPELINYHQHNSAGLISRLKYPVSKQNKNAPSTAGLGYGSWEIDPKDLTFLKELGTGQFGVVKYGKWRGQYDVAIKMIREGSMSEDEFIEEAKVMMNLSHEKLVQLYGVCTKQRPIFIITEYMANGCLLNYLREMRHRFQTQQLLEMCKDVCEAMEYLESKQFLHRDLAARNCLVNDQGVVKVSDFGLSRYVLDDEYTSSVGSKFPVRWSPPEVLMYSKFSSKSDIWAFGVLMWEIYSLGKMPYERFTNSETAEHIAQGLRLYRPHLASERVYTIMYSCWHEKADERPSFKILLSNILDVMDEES
T1 sequence (P35991 whole entry): as above
T2 sequence (Q06187 whole entry): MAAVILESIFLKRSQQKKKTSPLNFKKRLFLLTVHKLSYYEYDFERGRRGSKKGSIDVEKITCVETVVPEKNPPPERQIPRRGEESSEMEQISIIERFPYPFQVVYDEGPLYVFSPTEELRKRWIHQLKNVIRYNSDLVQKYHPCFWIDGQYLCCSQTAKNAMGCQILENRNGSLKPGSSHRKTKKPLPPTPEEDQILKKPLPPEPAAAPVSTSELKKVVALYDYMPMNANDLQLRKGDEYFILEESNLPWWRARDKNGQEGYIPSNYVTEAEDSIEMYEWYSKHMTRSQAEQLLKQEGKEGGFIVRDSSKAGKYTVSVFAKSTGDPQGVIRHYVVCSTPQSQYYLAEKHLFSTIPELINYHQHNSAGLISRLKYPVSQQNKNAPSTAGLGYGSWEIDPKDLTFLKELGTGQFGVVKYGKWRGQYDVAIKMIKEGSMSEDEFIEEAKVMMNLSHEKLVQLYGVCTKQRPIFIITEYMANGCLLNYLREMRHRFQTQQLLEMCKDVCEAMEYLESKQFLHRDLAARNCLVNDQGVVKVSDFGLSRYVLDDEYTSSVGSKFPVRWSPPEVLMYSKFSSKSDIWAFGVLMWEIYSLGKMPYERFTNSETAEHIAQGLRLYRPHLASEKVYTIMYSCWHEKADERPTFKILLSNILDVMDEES

CN(CCCNC(=O)CNc1cccc2c1C(=O)N(C1CCC(=O)NC1=O)C2=O)C(C)(C)C=C(C#N)C(=O)N1CCC[C@@H](n2nc(-c3ccc(Oc4ccccc4)cc3)c3c(N)ncnc32)C1 (some centres unmarked) [RC-1]
IKZF1 level, mean (IKZF1; 1 injection): 82.288
IKZF1 level, mean (IKZF1; 7 injections): 77.6802
IKZF1 quantification (IKZF1; RC-1 50 mg/kg, 50 mg/kg): 32.4273 and 61.2234 and 87.896 and 43.9089
IKZF1 quantification (IKZF1; RC-1 100 mg/kg, 100 mg/kg): 24.57 and 78.1459 and 58.0151
p-BTK(Y223) level, mean (p-BTK(Y233); 1 injection): 96.2894
p-BTK(Y223) level, mean (p-BTK(Y233); 7 injections): 85.9605
p-BTK(Y233) quantification (p-BTK(Y233); RC-1 50 mg/kg, 50 mg/kg): 61.7244 and 50.2464 and 71.4895 and 26.7569
p-BTK(Y233) quantification (p-BTK(Y233); RC-1 100 mg/kg, 100 mg/kg): 42.1872 and 10.8062 and 16.7176
BTK degradation (in words) (wild-type BTK): dose-dependent BTK degradation; also recorded: degrades both wild-type BTK and the C481S mutant with similar potency
BTK level reduction in the spleens (BTK; 20 mg kg^−1 i.p., 7 daily injections, vs vehicle-treated mice): ~ 50%
BTK level, mean (BTK; 1 injection): 58.8522
BTK level, mean (BTK; 7 injections): 59.7357
BTK quantification (BTK; RC-1 50 mg/kg, 50 mg/kg): 56.2321 and 63.4217 and 82.4136 and 62.324
BTK quantification (BTK; RC-1 100 mg/kg, 100 mg/kg): 59.6665 and 43.7954 and 40.8615
